Earlier results in publication PMC7395068, “The evolution of strategies to minimise the risk of human drug-induced liver injury (DILI) in drug discovery and development” (Archives of Toxicology, 2020).
Read-outs that look alike come from different tables or passages of the source.

Experiments:
PHH spheroids = conditions: In vitro Assay; ref Vorrink 2018; cited from earlier work
[1] = test system: HepG2 cells, primary human hepatocytes; conditions: cited from earlier work
HepG2 cells [2] = conditions: In vitro Assay; ref Persson 2013; cited from earlier work
[3] = cited from earlier work
HepG2 cells [4] = conditions: In vitro Assay; ref O'Brien 2006; cited from earlier work
human hepatocytes = conditions: In vitro Assay; ref Xu 2008; cited from earlier work
[5] = ref Chen 2016; cited from earlier work
PHH = conditions: In vitro Assay; ref Proctor 2017; cited from earlier work
hLiMTs = conditions: In vitro Assay; ref Proctor 2017; cited from earlier work
[6] = test system: isolated mouse liver mitochondria; conditions: In vitro Assay; ref Porceddu 2012; cited from earlier work
rBsep = conditions: cited from earlier work
[7] = test system: primary human hepatocytes, NIH3T3 fibroblasts, BSEP, CYP3A4; conditions: In vitro Assay; ref Schadt 2015; cited from earlier work
[8] = test system: THLE-Null and THLE-3A4 cells; conditions: In vitro Assay; ref Gustafsson 2014; cited from earlier work
[9] = test system: THLE or HepG2 cells, isolated mitochondria, BSEP; conditions: In vitro Assay; ref Aleo 2019; cited from earlier work
[10] = In vitro Assay, ref Garside 2014
[11] = In vitro Assay, ref Dawson 2012

CCN(CC)Cc1cc(Nc2ccnc3cc(Cl)ccc23)ccc1O [amodiaquine]
hLiMTs ATP <20 x Cmax (PHH spheroids): +VE (IC20 < 20 × Cmax.tot cut-off) | Cluster 1-6 +VE Assay [1, 10]: +VE | Cluser analysis (HepG2 cells [2]): +VE | In vivo DILI ([3]; […]): +VE | In vivo DILI ([3]; ref Garside 2014): +VE | In vivo DILI ([3]; ref Gustafsson 2014): +VE | In vivo DILI ([3]; ref O'Brien 2006): +VE | In vivo DILI ([3]; ref Persson 2013): +VE | In vivo DILI ([3]; ref Proctor 2017): +VE | In vivo DILI ([3]; ref Schadt 2015): +VE | In vivo DILI ([3]; ref Vorrink 2018): +VE | In vivo DILI ([3]; ref Williams 2019): +VE

COc1ccc(CCN2CCC(Nc3nc4ccccc4n3Cc3ccc(F)cc3)CC2)cc1 [astemizole]
Structural based (HCI) (HepG2 cells [4]): -VE | Cluster 1-6 +VE Assay [1, 10]: +VE | In vivo DILI ([3]; ref Garside 2014): +VE | In vivo DILI ([3]; ref O'Brien 2006): -VE | In vivo DILI ([3]; ref Xu 2008): -VE | Structural based (HCI) (human hepatocytes): -VE

[N-]=[N+]=CC(=O)OC[C@H](N)C(=O)O [azaserine]
Cluster 1-6 +VE Assay [1, 10]: +VE | Structural based (HCI) (human hepatocytes): -VE

CC[C@H]1OC(=O)[C@H](C)[C@@H](O[C@H]2C[C@@](C)(OC)[C@@H](O)[C@H](C)O2)[C@H](C)[C@@H](O[C@@H]2O[C@H](C)C[C@H](N(C)C)[C@H]2O)[C@](C)(O)C[C@@H](C)CN(C)[C@H](C)[C@@H](O)[C@]1(C)O [azithromycin]
Cluster 1-6 +VE Assay [1, 10]: +VE | In vivo DILI ([3]; […]): +VE | In vivo DILI ([3]; ref Garside 2014): +VE | In vivo DILI ([3]; ref Xu 2008): -VE | DILI +VE (5-8), DILI -VE (-4) [5]: +VE | DILI severity category [5]: vLess-DILI-Concern | Structural based (HCI) (human hepatocytes): -VE

NC(CO)C(=O)NNCc1ccc(O)c(O)c1O (stereo not drawn) [benserazide]
PHH ATP <100uM (PHH): -VE | hLiMTs ATP <100uM (hLiMTs): -VE | Cluster 1-6 +VE Assay [1, 10]: -VE | In vivo DILI ([3]; ref Garside 2014): -VE | In vivo DILI ([3]; ref Proctor 2017): -VE | In vivo DILI ([3]; ref Schadt 2015): -VE

CC(=O)Oc1ccc(C(c2ccc(OC(C)=O)cc2)c2ccccn2)cc1 [bisacodyl]
Structural based (HCI) (HepG2 cells [4]): +VE | in vitro data EC2<=1x Cmax [6]: -VE | in vitro data EC20<=2uM [6]: +VE | Cluster 1-6 +VE Assay [1, 10]: +VE | Cluser analysis (HepG2 cells [2]): -VE | Structural based (HCI) (HepG2 cells [2]): -VE | In vivo DILI ([3]; ref Garside 2014): -VE | In vivo DILI ([3]; ref O'Brien 2006): -VE | In vivo DILI ([3]; ref Persson 2013): -VE | In vivo DILI ([3]; ref Porceddu 2012): -VE | DILI +VE (5-8), DILI -VE (-4) [5]: -VE | DILI severity category [5]: vNo-DILI-Concern

CCCCNc1cc(C(=O)O)cc(S(N)(=O)=O)c1Oc1ccccc1 [bumetanide]
hLiMTs ATP <20 x Cmax (PHH spheroids): -VE | Cluster 1-6 +VE Assay [1, 10]: -VE | Structural based (HCI) (human hepatocytes): +VE

Cn1c(=O)c2c(ncn2C)n(C)c1=O [caffeine]
in vitro data EC2<=1x Cmax [6]: +VE | Cluster 1-6 +VE Assay [1]: -VE

O=NN(CCCl)C(=O)NCCCl [carmustine]
Inhibition of rBsep cutoff<3 (rBsep; [11]): -VE | Inhibition of rBsep cutoff<1& cmax u>.2 (rBsep): -VE | Cluster 1-6 +VE Assay [1]: +VE

O=C(O)[C@H]1/C(=C/CO)O[C@@H]2CC(=O)N21 [clavulanate]
Cellular toxicity (3T3 cells) [7]: -VE | Combined Assay [7]: -VE | GSH adduct HML [7]: -VE | Hepatocyte cellular toxicity [7]: -VE | MitoTox 3T3 [7]: -VE | TDI CYP3A4 [7]: -VE | hBSEP inhibition [7]: -VE | THLE-Null [8]: -VE | THLE-Null/3A4 [8]: -VE | Inhibition of rBsep cutoff<1& cmax u>.2 (rBsep; [11]): -VE | Inhibition of rBsep cutoff<3 (rBsep; [11]): -VE | Cluster 1-6 +VE Assay [1, 10]: -VE | In vivo DILI ([3]; […]): -VE | In vivo DILI ([3]; ref Dawson 2012): +VE | In vivo DILI ([3]; ref Garside 2014): +VE | In vivo DILI ([3]; ref Gustafsson 2014): +VE | In vivo DILI ([3]; ref Schadt 2015): +VE

O=C(O)c1cc(=O)c2c(OCC(O)COc3cccc4oc(C(=O)O)cc(=O)c34)cccc2o1 [cromolyn]
Inhibition of rBsep cutoff<1& cmax u>.2 (rBsep; [11]): -VE | Inhibition of rBsep cutoff<3 (rBsep; [11]): -VE | Cluster 1-6 +VE Assay [1, 10]: -VE | Structural based (HCI) (human hepatocytes): -VE

Nc1ccc(S(=O)(=O)c2ccc(N)cc2)cc1 [dapsone]
Inhibition of rBsep cutoff<1& cmax u>.2 (rBsep; [11]): -VE | Inhibition of rBsep cutoff<3 (rBsep; [11]): -VE | in vitro data EC2<=1x Cmax [6]: +VE | in vitro data EC20<=2uM [6]: -VE | Cluster 1-6 +VE Assay [1, 10]: +VE | In vivo DILI ([3]; […]): +VE | In vivo DILI ([3]; ref Dawson 2012): +VE | In vivo DILI ([3]; ref Garside 2014): +VE | In vivo DILI ([3]; ref Gustafsson 2014): +VE | In vivo DILI ([3]; ref Khetani 2012): +VE | In vivo DILI ([3]; ref Porceddu 2012): +VE | In vivo DILI ([3]; ref Xu 2008): +VE | DILI +VE (5-8), DILI -VE (-4) [5]: +VE | DILI severity category [5]: vLess-DILI-Concern | Structural based (HCI) (human hepatocytes): -VE

Cc1nc(Nc2ncc(C(=O)Nc3c(C)cccc3Cl)s2)cc(N2CCN(CCO)CC2)n1 [dasatinib]
in vitro data EC2<=1x Cmax [6]: -VE | in vitro data EC20<=2uM [6]: +VE | Cluster 1-6 +VE Assay [1, 10]: +VE | In vivo DILI ([3]; ref Garside 2014): +VE | In vivo DILI ([3]; ref Porceddu 2012): +VE | DILI +VE (5-8), DILI -VE (-4) [5]: +VE | DILI severity category [5]: vLess-DILI-Concern

Cn1c(=O)c2c(ncn2CC(O)CO)n(C)c1=O (stereo not drawn) [dyphylline]
Cluster 1-6 +VE Assay [1, 10]: -VE | In vivo DILI ([3]; ref Garside 2014): -VE | DILI +VE (5-8), DILI -VE (-4) [5]: -VE | DILI severity category [5]: vNo-DILI-Concern

C[C@H](N[C@@H](CCc1ccccc1)C(=O)O)C(=O)N1CCC[C@H]1C(=O)O [enalaprilat]
Cluster 1-6 +VE Assay [1]: -VE | In vivo DILI ([3]; in vivo): +VE | DILI +VE (5-8), DILI -VE (-4) [5]: -VE | DILI severity category [5]: Ambiguous DILI-concern

O=c1[nH]cc(F)c(=O)[nH]1 [fluorouracil]
Cluster 1-6 +VE Assay [1, 10]: +VE | In vivo DILI ([3]; ref Garside 2014): +VE | DILI +VE (5-8), DILI -VE (-4) [5]: +VE | DILI severity category [5]: vLess-DILI-Concern

CC(=O)O[C@H]1C[C@@]2(C)[C@@H](C[C@@H](O)[C@H]3[C@@]4(C)CC[C@@H](O)[C@@H](C)[C@@H]4CC[C@@]32C)/C1=C(\CCC=C(C)C)C(=O)O [fusidic acid]
THLE-Null [8]: +VE | Inhibition of rBsep cutoff<1& cmax u>.2 (rBsep; [11]): +VE | Inhibition of rBsep cutoff<3 (rBsep; [11]): +VE | Cluster 1-6 +VE Assay [1, 10]: -VE

CCN(CC)CCNc1ccc(CO)c2sc3ccccc3c(=O)c12 [hycanthone]
Cluster 1-6 +VE Assay [1, 10]: +VE | In vivo DILI ([3]; […]): +VE | In vivo DILI ([3]; ref Garside 2014): +VE | In vivo DILI ([3]; ref Xu 2008): +VE | Structural based (HCI) (human hepatocytes): +VE

CC[C@@H](C(N)=O)N1CCCC1=O [levetiracetam]
Cluster 1-6 +VE Assay [1, 10]: +VE | In vivo DILI ([3]; ref Garside 2014): +VE | DILI +VE (5-8), DILI -VE (-4) [5]: +VE | DILI severity category [5]: vLess-DILI-Concern

CCCCc1nc(Cl)c(CO)n1Cc1ccc(-c2ccccc2-c2nn[nH]n2)cc1 [losartan]
Cellular toxicity (3T3 cells) [7]: -VE | Combined Assay [7]: +VE | GSH adduct HML [7]: +VE | Hepatocyte cellular toxicity [7]: +VE | MitoTox 3T3 [7]: -VE | TDI CYP3A4 [7]: -VE | hBSEP inhibition [7]: +VE | Partition Hybrid HRM Score [9]: +VE | Ro2 Hybrid HRM Score [9]: +VE | Cluster 1-6 +VE Assay [1, 10]: +VE

O=C1c2c(O)ccc(O)c2C(=O)c2c(NCCNCCO)ccc(NCCNCCO)c21 [mitoxantrone]
in vitro data EC2<=1x Cmax [6]: -VE | Cluster 1-6 +VE Assay [1, 10]: +VE | Structural based (HCI) (human hepatocytes): +VE

CNC(=O)Oc1ccc2c(c1)[C@]1(C)CCN(C)[C@@H]1N2C [physostigmine]
THLE-Null [8]: -VE | THLE-Null/3A4 [8]: -VE | Inhibition of rBsep cutoff<3 (rBsep; [11]): -VE | Inhibition of rBsep cutoff<1& cmax u>.2 (rBsep): -VE | Cluster 1-6 +VE Assay [1, 10]: -VE | In vivo DILI ([3]; ref Dawson 2012): -VE | In vivo DILI ([3]; ref Garside 2014): -VE | In vivo DILI ([3]; ref Gustafsson 2014): -VE | In vivo DILI ([3]; ref Vorrink 2018): -VE | DILI +VE (5-8), DILI -VE (-4) [5]: -VE | DILI severity category [5]: vNo-DILI-Concern

CN(CCOc1ccc(CC2SC(=O)NC2=O)cc1)c1ccccn1 (stereo not drawn) [rosiglitazone]
PHH ATP <100uM (PHH): -VE | hLiMTs ATP <100uM (hLiMTs): +VE (IC50 threshold of 100 µM) | hLiMTs ATP <20 x Cmax (PHH spheroids): -VE | Inhibition of rBsep cutoff<1& cmax u>.2 (rBsep; [11]): -VE | Inhibition of rBsep cutoff<3 (rBsep; [11]): +VE | Structural based (HCI) (HepG2 cells [4]): -VE | Cluster 1-6 +VE Assay [1, 10]: +VE | In vivo DILI ([3]; […]): -VE | In vivo DILI ([3]; ref Aleo 2019): +VE | In vivo DILI ([3]; ref Dawson 2012): +VE | In vivo DILI ([3]; ref Garside 2014): +VE | In vivo DILI ([3]; ref Gustafsson 2014): +VE | In vivo DILI ([3]; ref O'Brien 2006): -VE | In vivo DILI ([3]; ref Proctor 2017): +VE | In vivo DILI ([3]; ref Schadt 2015): +VE | In vivo DILI ([3]; ref Vorrink 2018): -VE | In vivo DILI ([3]; ref Williams 2019): +VE | In vivo DILI ([3]; ref Xu 2008): -VE | DILI +VE (5-8), DILI -VE (-4) [5]: +VE | DILI severity category [5]: vLess-DILI-Concern | Structural based (HCI) (human hepatocytes): -VE

CC(C)(C)NCC(O)c1cc(O)cc(O)c1 (stereo not drawn) [terbutaline]
Cluster 1-6 +VE Assay [1, 10]: +VE | In vivo DILI ([3]; ref Garside 2014): +VE | DILI +VE (5-8), DILI -VE (-4) [5]: +VE | DILI severity category [5]: vLess-DILI-Concern

CCCCNC(=O)NS(=O)(=O)c1ccc(C)cc1 [tolbutamide, reference compound]
Inhibition of rBsep cutoff<1& cmax u>.2 (rBsep; [11]): -VE | Inhibition of rBsep cutoff<3 (rBsep; [11]): -VE | Structural based (HCI) (HepG2 cells [4]): +VE | Cluster 1-6 +VE Assay [1, 10]: +VE
